Reference: ChEMBL document CHEMBL1201862, “PubChem BioAssay data set” (2004)
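Compound exposure: 48 hours, 5 concentrations, 96-well plates. GI50: concentration for 50% inhibition of growth.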 Calls of active or inactive are those of the source. No stated cut-off is given here; in the data, active = GI50 up to about 1.1 µM and inactive = higher.

What was measured:
Experiment in all cases: growth of human tumour cells (NCI), 48 h
HT-29 = system: HT-29
TK-10 = system: TK-10
KM12 = system: KM12
OVCAR-8 = system: OVCAR-8
SN12C = system: SN12C
UO-31 = system: UO-31
HCT-15 = system: HCT-15
MCF7 = system: MCF7
HL-60 = system: HL-60
OVCAR-3 = system: OVCAR-3
SF-539 = system: SF-539
UACC-257 = system: UACC-257
SNB-19 = system: SNB-19
K562 = system: K562
SW-620 = system: SW-620
CCRF-CEM = system: CCRF-CEM
HCT-116 = system: HCT-116
A549 = system: A549
A498 = system: A498
EKVX = system: EKVX
NCI-H226 = system: NCI-H226
MDA-N = system: MDA-N
SK-MEL-28 = system: SK-MEL-28
OVCAR-4 = system: OVCAR-4
RPMI-8226 = system: RPMI-8226
SK-OV-3 = system: SK-OV-3
OVCAR-5 = system: OVCAR-5
SF-268 = system: SF-268
ACHN = system: ACHN
M14 = system: M14
HOP-62 = system: HOP-62
RXF 393 = system: RXF 393
MOLT-4 = system: MOLT-4
IGROV-1 = system: IGROV-1
SK-MEL-5 = system: SK-MEL-5
MDA-MB-231 = system: MDA-MB-231
COLO 205 = system: COLO 205
786-0 = system: 786-0
SR = system: SR
SNB-75 = system: SNB-75
NCI-H460 = system: NCI-H460
HOP-92 = system: HOP-92
NCI-H23 = system: NCI-H23
PC-3 = system: PC-3
CAKI-1 = system: CAKI-1
Malme-3M = system: Malme-3M
NCI/ADR-RES = system: NCI/ADR-RES
BT-549 = system: BT-549
HCC 2998 = system: HCC 2998
LOX IMVI = system: LOX IMVI
SF-295 = system: SF-295
UACC-62 = system: UACC-62
DU-145 = system: DU-145
NCI-H522 = system: NCI-H522
U-251 = system: U-251
Hs-578T = system: Hs-578T
SK-MEL-2 = system: SK-MEL-2
MDA-MB-435 = system: MDA-MB-435
T47D = system: T47D

OCCN(CCO)CCn1cnc2c(NCc3ccccc3)ncnc21
GI50 (HT-29): > 100 µM (inactive) | GI50 (TK-10): > 100 µM (inactive) | GI50 (KM12): > 100 µM (inactive) | GI50 (OVCAR-8): > 100 µM (inactive) | GI50 (SN12C): > 100 µM (inactive) | GI50 (UO-31): > 100 µM (inactive) | GI50 (HCT-15): > 100 µM | GI50 (MCF7): > 100 µM (inactive) | GI50 (HL-60): > 100 µM (inactive) | GI50 (OVCAR-3): > 100 µM (inactive) | GI50 (SF-539): > 100 µM (inactive) | GI50 (UACC-257): > 100 µM (inactive) | GI50 (SNB-19): > 100 µM (inactive) | GI50 (K562): > 100 µM (inactive) | GI50 (SW-620): > 100 µM (inactive) | GI50 (CCRF-CEM): > 100 µM (inactive) | GI50 (HCT-116): > 100 µM (inactive) | GI50 (A549): > 100 µM (inactive) | GI50 (A498): > 100 µM (inactive) | GI50 (EKVX): > 100 µM (inactive) | GI50 (NCI-H226): > 100 µM (inactive) | GI50 (MDA-N): > 100 µM (inactive) | GI50 (SK-MEL-28): > 100 µM (inactive) | GI50 (OVCAR-4): > 100 µM (inactive) | GI50 (RPMI-8226): > 100 µM (inactive) | GI50 (SK-OV-3): > 100 µM (inactive) | GI50 (OVCAR-5): > 100 µM (inactive) | GI50 (SF-268): > 100 µM (inactive) | GI50 (ACHN): > 100 µM (inactive) | GI50 (M14): > 100 µM (inactive) | GI50 (HOP-62): > 100 µM (inactive) | GI50 (RXF 393): > 100 µM (inactive) | GI50 (MOLT-4): > 100 µM (inactive) | GI50 (IGROV-1): > 100 µM (inactive) | GI50 (SK-MEL-5): > 100 µM (inactive) | GI50 (MDA-MB-231): > 100 µM (inactive) | GI50 (COLO 205): > 100 µM (inactive) | GI50 (786-0): > 100 µM (inactive) | GI50 (SR): > 100 µM (inactive) | GI50 (SNB-75): > 100 µM (inactive) | GI50 (NCI-H460): > 100 µM (inactive) | GI50 (HOP-92): > 100 µM (inactive) | GI50 (NCI-H23): > 100 µM (inactive) | GI50 (PC-3): > 100 µM (inactive) | GI50 (CAKI-1): > 100 µM (inactive) | GI50 (Malme-3M): > 100 µM (inactive) | GI50 (NCI/ADR-RES): > 100 µM (inactive) | GI50 (BT-549): > 100 µM (inactive) | GI50 (HCC 2998): > 100 µM (inactive) | GI50 (LOX IMVI): > 100 µM (inactive) | GI50 (SF-295): > 100 µM (inactive) | GI50 (UACC-62): > 100 µM (inactive) | GI50 (DU-145): > 100 µM (inactive) | GI50 (NCI-H522): > 100 µM (inactive) | GI50 (U-251): > 100 µM (inactive) | GI50 (Hs-578T): > 100 µM (inactive) | GI50 (SK-MEL-2): > 100 µM (inactive) | GI50 (MDA-MB-435): > 100 µM (inactive) | GI50 (T47D): > 100 µM (inactive)
